According to patent US10456359B2, “Synergistic beverage composition” (Harsha Chigurupati, priority 2015, dated 2019):
Where a SMILES comes first, the peptide text is derived from it.

What was measured:
interleukin-12 (IL-12) [1] = assay: CNS/immunology study, serum IL-12, alcohol 5 days; format: in vivo, Wistar albino rats; conditions: Pro: Protection (%), rats, alcohol 5 Day
Excerpt: (§1) For hangover, 1 day immunology parameter were considered and for CNS, 5 days immunology parameter were considered.

[2] = system: Monocyte chemoattractant protein-1 (MCP-1); assay: CNS/immunology study, serum MCP-1, alcohol 5 days; format: in vivo, Wistar albino rats; conditions: Pro: Protection (%), rats, alcohol 5 Day
Procedure: (§2) The lowest detectable limit of the kit is 0.1 ng/ml (Wang L, Li Y, Chen J, et al. “Ischemic Cerebral Tissue and MCP-1 Enhance Rat Bone Marrow Stromal Cell Migration in Interface Culture.” Experimental Hematology, 30, 7, 2002, 831-836).
as §1

Interferon gamma (IFN-γ) [3] = assay: CNS/immunology study, serum IFN-gamma, alcohol 5 days; format: in vivo, Wistar albino rats; conditions: Pro: Protection (%), rats, alcohol 5 Day
Excerpt: (§3) Distilled ethanol was obtained from Bengal Chemicals, West Bengal, India. Biochemical kits like AST, ALT, ALP and total protein were obtained from Span Diagnostics Ltd. Surat, India. Rat IL-12 ELISA kit (Elabscience Biotechnology Co. Ltd, WuHan, P.R.C.), Rat CRP ELISA kit (BD Biosciences, USA), Rat IFN-gamma ELISA kit (Biolegend, San Diego, Calif.) Rat MCP-1 ELISA kit (Elabscience Biotechnology Co. Ltd, WuHan, P.R.C.). All the chemicals used in the present study were of analytical grade and obtained from the following companies: Sigma (St. Louis, Mo., USA), Merck (Mumbai, India), S D fine chemicals (Mumbai, India) and Qualigen (Mumbai, India).
as §1

[4] = system: Monocyte chemoattractant protein-1 (MCP-1); assay: Hangover study, serum MCP-1, alcohol 1 day; format: in vivo, Wistar albino rats; set-up: concentration or dose not given beside the values; conditions: 1 Day alcohol
Procedure: as §2, §1

[5] = system: spatial learning and memory; assay: Morris water maze task (escape latency), alcohol 5 days; format: in vivo, Wistar albino rats; conditions: Pro: Protection (%), rats, alcohol 5 day
Interferon gamma (IFN-γ) [6] = assay: Hangover study, serum IFN-gamma, alcohol 1 day; format: in vivo, Wistar albino rats; set-up: concentration or dose not given beside the values; conditions: 1 Day alcohol
Excerpt: as §3, §1

[7] = system: Monocyte chemoattractant protein-1 (MCP-1) from brain homogenate; assay: Hangover study, MCP-1 from brain homogenate, alcohol 1 day; format: in vivo, Wistar albino rats; conditions: 1 Day alcohol
interleukin-12 (IL-12) [8] = assay: Hangover study, serum IL-12, alcohol 1 day; format: in vivo, Wistar albino rats; set-up: concentration or dose not given beside the values; conditions: 1 Day alcohol
Excerpt: as §1

[9] = system: aspartate aminotransferase (AST); assay: Hepatoprotection study, serum AST, alcohol 5 days; format: in vivo, Wistar albino rats; conditions: Pro: Protection (%), rats, alcohol 4 gm/kg/day p.o.
[10] = system: acetylcholinesterase activity of brain homogenate; conditions: Hangover study, 1 Day alcohol; ingredient amounts in mass concentration (%)
Procedure: (§4) We have included this parameter to evaluate cognition and memory deficit in experimental animals.
(§5) Experimental Design • (b) Animal study model 1: Saline/Alcohol (4.0 gm/kg/day, p.o.)/Formulation with alcohol (4.0 gm/kg/day, p.o.) were administered (fed orally by orogastric cannula) for one day. 12-16 hours after the dose the animals were sacrificed and blood samples will be collected for estimation of biochemical parameters. Whole brain without cerebellum were dissected out, 10% homogenate was prepared with 0.1 M PB (pH 7.4). The homogenate solution was centrifuged at 10000 rpm for 20 minutes at 4° C. and the supernatant was used for estimation of acetylcholinesterase activity, which was estimated by Ellman's method (Ellman G L et al. A new and rapid colorimetric determination of acetylcholinesterase activity. Biochem Pharmacol, 1961, 7:88.) • (c) Animal study model 2: Saline/Alcohol (4.0 gm/kg/day, p.o.)/Formulation with alcohol (4.0 gm/kg/day, p.o.) were administered (fed orally by orogastric cannula) for 5 consecutive days. 12-16 hours after the last dose, the animals were sacrificed and blood samples were collected for estimation of biochemical parameters. Whole brain without cerebellum were dissected out, 10% homogenate was prepared with 0.1 M PB (pH 7.4). The homogenate solution was centrifuged at 10000 rpm for 20 minutes at 4° C. and the supernatant was used for estimation of acetylcholinesterase activity. […] The latency period of day 5 (before alcohol) was compared with post alcohol latency period (Vorhees C V and Williams M T. Morris water maze: procedures for assessing spatial and related forms of learning and memory, Nat Protoc, 2006, 1(2): 848-58.). % Protection Calculated in Above Experiments: % Protection=1−[(T−NS)/(AL−NS)]×100 T=Mean value of drug treated, NS=Mean value of normal control, AL=Mean value of alcohol alone.
(§6) Male Wistar albino rats weighing 150-200 g were procured and randomly divided into groups consisting of twelve (12) animals in each group. Alcohol induced hangover and CNS related biochemical changes and memory function in rats by oral administration of 30% alcohol (4 gm/kg/day, p.o.) for 1 and 5 days and this group served as the negative control and treated groups received different formulation.
(§7) All drug solutions were prepared in 40% aqueous alcohol, adjusting the pH in the range of 5.0-10.0 for evaluation of alcohol induced hangover and CNS related biochemical parameters.

[11] = system: interleukin-12 (IL-12) from brain homogenate; assay: Hangover study, IL-12 from brain homogenate, alcohol 1 day; format: in vivo, Wistar albino rats; set-up: concentration or dose not given beside the values; conditions: 1 Day alcohol
[12] = system: serum C-reactive protein (CRP); assay: Hangover study, serum CRP, alcohol 1 day; format: in vivo, Wistar albino rats; conditions: 1 Day alcohol
Excerpt: as §1

[13] = system: alkaline phosphatase (ALP); conditions: Pro: Protection (%); rats, alcohol 4 gm/kg/day p.o., 5 days, serum
Procedure: The levels of alanine aminotransferase (ALT), aspartate aminotransferase (AST) and alkaline phosphatise (ALP) in serum were measured using commercial spectrophotometric kit bought from Span Diagnostic Ltd. (www.span.in) according to the manufacturer's protocols.
12-16 hours after the last dose, the animals were sacrificed and blood samples were collected for estimation of biochemical parameters.
Male Wistar albino rats weighing 150-200 g were procured and randomly divided into groups consisting of twelve (12) animals in each group. Hepatoprotection was induced by alcohol in rats by oral administration of 30% alcohol (4 gm/kg/day, p.o.) for 5 days and this group served as the negative control and treated groups received different formulation.
All drug solutions were prepared in 40% aqueous alcohol, adjusting the pH in the range of 5.0-10.0 for evaluation of alcohol induced Hepatoprotection. This solution was further diluted with distilled water to obtain 30% aqueous alcoholic solution and administered orally by gavage to different rats group of step (a).

[14] = system: interleukin-12 (IL-12) from brain homogenate; assay: CNS study, IL-12 from brain homogenate, alcohol 5 days; format: in vivo, Wistar albino rats; conditions: rats, alcohol 5 Day; for Brain IL12 Pro: Pro: Protection (%)
[15] = system: serum alanine aminotransferase (ALT); assay: Hepatoprotection study, serum ALT, alcohol 5 days; format: in vivo, Wistar albino rats; conditions: Pro: Protection (%), rats, alcohol 4 gm/kg/day p.o.
[16] = system: serum C-reactive protein (CRP); assay: CNS/immunology study, serum CRP, alcohol 5 days; format: in vivo, Wistar albino rats; conditions: Pro: Protection (%), rats, alcohol 5 Day
Excerpt: as §1

[17] = system: Monocyte chemoattractant protein-1 (MCP-1) from brain homogenate; assay: CNS study, MCP-1 from brain homogenate, alcohol 5 days; format: in vivo, Wistar albino rats; conditions: rats, alcohol 5 Day; for Brain MCP-1 Pro: Pro: Protection (%)
[18] = system: acetylcholinesterase activity of brain homogenate; conditions: Pro: Protection (%), rats, alcohol 5 Day
Procedure: as §4, §5, §6, §7

SMILES	IL12 Pro (interleukin-12 (IL-12) [1])	MCP-1 Pro [2]	IFN-Gamma Pro (Interferon gamma (IFN-γ) [3])	MCP-1 Pro (Protection) [4]	WATER MAZE Pro [5]	IFN-Gamma Pro (Protection) (Interferon gamma (IFN-γ) [6])	Brain MCP-1 Pro (Protection) [7]	IL12 Pro (Protection) (interleukin-12 (IL-12) [8])	AST Pro [9]	ACHe Pro (Protection) [10]	Brain IL12 Pro (Protection) [11]	CRP Pro (Protection) [12]	ALP Pro [13]	Brain IL12 Pro [14]	ALT Pro [15]	CRP Pro [16]	Brain MCP-1 Pro [17]	ACHe Pro [18]	Brain IL12 Syn ([14]; Syn: Synergism (%))	Brain MCP-1 Syn ([17]; Syn: Synergism (%))
CC1(C(=O)O)CCC2(C)CCC3(C)C(=CC(=O)C4C5(C)CCC(OC6OC(C(=O)O)C(O)C(O)C6OC6OC(C(=O)O)C(O)C(O)C6O)C(C)(C)C5CCC43C)C2C1 (stereo not drawn) [0.1 GA, 18β-GA]	5.85%	0%	0%	3.79%	5.32%	2.58%	4.25%	2.6%	8.25%	11.79%	3.16%	5.15%	6.29%	3.66%	4.24%	5.19%	3.58%	9.4%		
C/C=C/C=C/C(=O)[O-].[K+] [0.1 KS, Potassium Sorbate]	1.2%	1.04%	0%	0.16%	1.31%	0.11%	0.19%	0.89%	0.09%	0.24%	0.24%	1.2%	0%	0.00%	0.11%	0.87%	0%	0%	0%	0%
CC1(C(=O)O)CCC2(C)CCC3(C)C(=CC(=O)C4C5(C)CCC(OC6OC(C(=O)O)C(O)C(O)C6OC6OC(C(=O)O)C(O)C(O)C6O)C(C)(C)C5CCC43C)C2C1 (stereo not drawn) [0.3 GA, 18β-GA]	10.07%	15.46%	23.18%	13.97%	15.57%	7.85%	18.92%		20.46%			11.21%	11.68%	15.63%	25.62%	15.63%	21.36%	21.5%		
OC[C@@H](O)[C@@H](O)[C@H](O)[C@H](O)CO [0.5 Man, D-Mannitol]				3.27%	4.95%	3.51%		3.59%	4.28%	4.12%	4.25%		4.78%		3.59%		2.75%	5.22%		
C[C@H](N)C(=O)N[C@@H](CCC(N)=O)C(=O)O [1 DP, L-Ala-L-Gln] (H-Ala-Gln-OH)	16.44%	7.14%	8.89%	20.74%	22.38%	12.25%	3.58%	6.13%	15.68%		10.53%	31.3%	18.96%	10.30%	13.4%	6.33%		3.91%		
OC[C@@H](O)[C@@H](O)[C@H](O)[C@H](O)CO [1.2 Man, D-Mannitol]				11.85%	12.84%	7.79%	21.28%	13.45%	22%	21.54%	12.28%	8.68%	24.48%	13.92%	23.19%		14.28%	17.58%		
C[C@H](N)C(=O)N[C@@H](CCC(N)=O)C(=O)O [1.5 DP, L-Ala-L-Gln] (H-Ala-Gln-OH)	22.53%	11.01%		11.04%	24.53%	20.58%	14.96%	20.11%	20.25%	21.14%	18.26%	26.13%	22.35%		14.68%	11.97%		15.29%		
C[C@H](N)C(=O)N[C@@H](CCC(N)=O)C(=O)O [1.25 DP, L-Ala-L-Gln] (H-Ala-Gln-OH)	22.71%	8.14%	13.09%	14.22%	10.36%	10.44%	17.02%		22%	20.33%	7.02%	10.61%	22.73%	15.82%	17.59%			9.7%		
C[C@H](N)C(=O)N[C@@H](CCC(N)=O)C(=O)O [2.0 DP, L-Ala-L-Gln] (H-Ala-Gln-OH)	29.54%	19.16%	22.91%	21.43%	50.36%	25.96%	23.54%	31.9%	30.72%	31.79%	26.34%	33.14%	28.68%		38.83%	27.24%	24.36%	36.85%		
OC[C@@H](O)[C@@H](O)[C@H](O)[C@H](O)CO [2.5 Man, D-Mannitol]					25.4%	18.22%	27.66%	21.4%	42.57%	45.12%	23.16%	18.33%	34.75%	28.33%	38.4%		24.65%	30.61%		
C[C@H](N)C(=O)N[C@@H](CCC(N)=O)C(=O)O [3 DP, L-Ala-L-Gln] (H-Ala-Gln-OH)	32.6%	13.51%	30.24%	29.69%	59.17%	31.08%		30.98%	32.95%	59.25%		41.82%	29.08%	27.57%	29.7%	27.59%		59.25%		
